Where two headings read alike, the source gives them in different places.
Experiments:
[1] = Extensive tissue distribution study in CT26 tumor-bearing mice; format: in vivo, Balb/c mice; details: Balb/c, mouse, 75 mg/kg PO; for AUC(0-t): read-out: AUC0-t (converted); for Cmax: read-out: Cmax; for Tmax: read-out: Tmax (converted)
Protocol: Mice were injected subcutaneously on the right flank with 1x10^6 CT26 cells, a murine colorectal carcinoma cell line from BALB/c mice,obtained from ATCC (Manassas, VA). Cells were cultured in RPMI-1640 medium with L-glutamine (BioWhittaker Inc., Walkersville, MD), containing 10% heat-inactivated fetal bovine serum and 100 units of penicillin/mL and 100 μg/mL of streptomycin (Biofluids, BioSource, Rockville, MD) in an incubator with 95% air, 5% CO2, and 95% humidity at 37 °C. Cells were verified and checked for mycoplasm by IDEXX BioAnalytics (Westbrook, ME). Implantation and tumor growth were monitored twice weekly with a digital caliper. When tumors were approximately 200 mm^3, mice were stratified into time groups (N=3) primarily using body weight and secondarily using tumor size. Mice were administered 75 mg/kg PO through oral gavage. […] Bone marrow was obtained by flushing both femurs from each mouse with PBS, followed by centrifugation at 12,000 x g and removal of the supernatant. Protein analysis of the resuspended pellet was conducted using the Bio-Rad protein assay following the manufacturer’s instructions with bovine serum albumin as the standard. Blood was processed to obtain plasma and urine and feces were collected as described above.
For tissue and tumor analysis, samples were homogenized with 3 parts PBS (v/g) and further diluted with control plasma and concentrations determined from calibration curves prepared in control plasma.

[2] = test system: human liver microsomes (HLMs); details: cited from earlier work
[3] = mouse, in vivo
Protocol: The vehicle for all groups was 10% DMSO, 40% propylene glycol, and 50% dH2O. […] Mice were euthanized by CO2 inhalation and the following tissues collected: blood, liver, kidney, lung, skeletal muscle, and brain.
Duplicate standard curves with calibrators consisting of 0.3, 1, 3, 10, 30 100, 300, and 1,000 ng/mL, in addition to blank plasma, were prepared fresh on days of analysis using control Balb/c mouse plasma (Innovative Research, Novi, MI). QCs were prepared in bulk and stored at −80 °C, with concentrations of 0.8 (QCL), 20 (QCM), and 800 ng/mL (QCH). […] The injection volume was 3 μL. […] Curve fitting was accomplished through linear regression with 1/y^2 weighting. Semi-quantitation of metabolites was accomplished by reporting IS normalized metabolite response.
Noncompartmental (NC) PK was determined using GraphPad Prism (San Diego, CA) using the linear trapezoidal method and Bailer method of AUC determination for estimates of exposure in plasma, RBC, tumors, and tissues [24]. PK parameters or analysis requiring dose were adjusted for the actual dose as determined using measurements of dosing solution. Dose-normalized plasma exposures, Cmax and AUC, of PO treated groups of the dose linearity studies were compared using ANOVA tests to determine dose linearity.
Tissue partition coefficients (PTissue) and RBC partitioning (PRBC) were calculated using Eq. (1) and tested among PO treated groups using ANOVA tests.
The resulting concentrations were multiplied by the volume or weight to convert to a total amount and then divided by 3 to account for the number of mice per cage. These amounts were then divided by the average total amount of drug administered to calculate the percent excreted by urine and feces, see Eq. (2). Renal clearance (ClR) was calculated by dividing the excreted amount by the plasma AUC, see Eq. (3) [25].
When available, plasma metabolite data was used to determine semi-quantitative exposure as well as metabolic ratios, using Eq. (4). The MR among PO treated groups in the dose linearity studies were compared using ANOVA testing. Metabolite presence was also analyzed in urine and feces.

With `C[C@@H]1COCCN1c1cc(C2([S@](C)(=N)=O)CC2)nc(-c2cc[nH]c3nccc2-3)n1` [AZD6738] the AUC(0-inf) ([1]; Brain) was 2100 ng·h/mL, the AUC(0-t) ([1]; Brain, 0-960 min) was 2100 ng·h/mL and the Cmax ([1]; Brain) was 854 ng/mL. The Tmax ([1]; Brain) was 15 min, the AUC(0-inf) ([1]; CT26 Tumor) was 29600 ng·h/mL and the AUC(0-t) ([1]; CT26 Tumor, 0-1440 min) was 29600 ng·h/mL. It also gave a Cmax ([1]; CT26 Tumor) of 10100 ng/mL, a Tmax ([1]; CT26 Tumor) of 30 min and an AUC(0-inf) ([1]; Draining Lymph Node) of 31300 ng·h/mL. It also gave an AUC(0-t) ([1]; Draining Lymph Node, 0-1440 min) of 31200 ng·h/mL, a Cmax ([1]; Draining Lymph Node) of 12100 ng/mL and a Tmax ([1]; Draining Lymph Node) of 15 min. For the same molecule, the AUC(0-inf) ([1]; Esophagus) was 129000 ng·h/mL, the AUC(0-t) ([1]; Esophagus, 0-1440 min) was 129000 ng·h/mL and the Cmax ([1]; Esophagus) was 115000 ng/mL. It also gave a Tmax ([1]; Esophagus) of 5 min, an AUC(0-inf) ([1]; Fat) of 16300 ng·h/mL and an AUC(0-t) ([1]; Fat, 0-1440 min) of 16300 ng·h/mL. It also gave a Cmax ([1]; Fat) of 9200 ng/mL, a Tmax ([1]; Fat) of 30 min and an AUC(0-inf) ([1]; Heart) of 45600 ng·h/mL. It also gave an AUC(0-t) ([1]; Heart, 0-1440 min) of 45600 ng·h/mL, a Cmax ([1]; Heart) of 19400 ng/mL and a Tmax ([1]; Heart) of 15 min. It also gave an AUC(0-inf) ([1]; Liver) of 293000 ng·h/mL, an AUC(0-t) ([1]; Liver, 0-1440 min) of 293000 ng·h/mL and a Cmax ([1]; Liver) of 114000 ng/mL. It also gave a Tmax ([1]; Liver) of 15 min, an AUC(0-inf) ([1]; Non-draining Lymph Node) of 38800 ng·h/mL and an AUC(0-t) ([1]; Non-draining Lymph Node, 0-1440 min) of 38800 ng·h/mL. It also gave a Cmax ([1]; Non-draining Lymph Node) of 16100 ng/mL, a Tmax ([1]; Non-draining Lymph Node) of 15 min and an AUC(0-inf) ([1]; Small Intestine) of 332000 ng·h/mL. The AUC(0-t) ([1]; Small Intestine, 0-1440 min) was 331000 ng·h/mL, the Cmax ([1]; Small Intestine) was 204000 ng/mL and the Tmax ([1]; Small Intestine) was 15 min. The AUC(0-inf) ([1]; Spinal Cord) was 2450 ng·h/mL, the AUC(0-t) ([1]; Spinal Cord, 0-1440 min) was 2420 ng·h/mL and the Cmax ([1]; Spinal Cord) was 1010 ng/mL. It also gave a Tmax ([1]; Spinal Cord) of 15 min, an AUC(0-inf) ([1]; Spleen) of 35200 ng·h/mL and an AUC(0-t) ([1]; Spleen, 0-1440 min) of 35200 ng·h/mL. The Cmax ([1]; Spleen) was 14200 ng/mL, the Tmax ([1]; Spleen) was 15 min and the AUC(0-inf) ([1]; Thymus) was 25800 ng·h/mL. It also gave an AUC(0-t) ([1]; Thymus, 0-1440 min) of 25800 ng·h/mL, a Cmax ([1]; Thymus) of 9630 ng/mL and a Tmax ([1]; Thymus) of 5 min. The “enzymes of oxidative deimination to the primary sulfoxide metabolite” value [2] was “CYP2C8/2J2”, the “Renal excretion of unaltered drug” value ([3]; Balb/c) was < 4 % of dose and the “decrease of apparent clearance (Cl/F/kg)” value ([3]; Balb/c, po) was “approximately 50%”. For the same molecule, the “decrease of apparent volume of distribution (Vd/F/kg)” value ([3]; Balb/c, po) was “approximately 50%”, the “excreted unchanged in the feces” value ([3]; Balb/c, po) was 9.2-15.7 % of dose and the Cl ([3]; Balb/c, po, 2 mg/kg) was 75.7 mL/min/kg. For the same molecule, the Vd ([3]; Balb/c, po, 2 mg/kg) was 11.4 L/kg, the Cl ([3]; Balb/c, po, 7.5 mg/kg) was 58.8 mL/min/kg and the Vd ([3]; Balb/c, po, 7.5 mg/kg) was 11.0 L/kg. It also gave a Cl ([3]; Balb/c, po, 20 mg/kg) of 40.4 mL/min/kg, a Vd ([3]; Balb/c, po, 20 mg/kg) of 5.50 L/kg and a Cl ([3]; Balb/c, po, 75 mg/kg) of 36.3 mL/min/kg. For the same molecule, the Vd ([3]; Balb/c, po, 75 mg/kg) was 6.06 L/kg, the “Partitioning to lung, PO groups compared to the IV group” value [3] was “approximately two-fold higher” and the “Penetration into the brain” value [3] was “limited”.
